Assay results from patent publication US20240325469A1, “COMPOSITION FOR PREVENTION OR TREATMENT OF COGNITIVE DYSFUNCTION AND INTESTINAL DYSFUNCTION, COMPRISING LACTOBACILLUS PARACASEI NK112, CUSCUTA AUSTRALIS EXTRACT, AND CUSCUTA JAPONICA EXTRACT” (MTHERA PHARMA CO., LTD., priority 2021, published 2024).

Assays:
Format in all cases: in vivo, mouse
[1] = system: male C57BL/6 mice administered with Escherichia coli; assay: Y-maze task, Escherichia coli-induced model; conditions: spontaneous alternation; E. coli model mice; donepezil 5 mg/kg
Protocol: In order to evaluate spatial cognitive ability, a Y-maze task was performed. In a Y-shaped maze that has a length of 40 cm, a width of 4 cm, and a height of 12 cm and is closed on all sides, three paths were designated as A, B, and C. Then, a mouse was placed in the center and observed for 8 minutes, and the total number of entries entered was recorded. If the mouse entered three different branches in turn, the alternation number was counted as 1. […] The alternation number is defined as entering all three in turn, and the calculation for evaluation of spatial cognitive function was performed using the following equation.
Spontaneous alternation (%)=(total number of alternation/(total number of entries-2))×100

[2] = system: male C57BL/6 mice administered with Escherichia coli; assay: Novel object recognition test (NORT), Escherichia coli-induced model; conditions: recognition index; E. coli model mice; donepezil 5 mg/kg
Protocol: The mouse was moved to the behavior observation room and acclimatized for 5 minutes. Thereafter, in a 3-minute exposure trial, two identical objects (1 set) were placed in a box 30 cm apart, and the time the mouse recognized the objects for 3 minutes was measured. […] The recognition index (%) is converted into the preference for new objects (time to recognize novel objects/total recognition time)×100.

[3] = system: male C57BL/6 mice administered with Escherichia coli; assay: Tail suspension test (TST), Escherichia coli-induced model; conditions: E. coli model mice; once a day for 5 days; NK112 samples 1×10^9 CFU, fluoxetine 1 mg/kg
Protocol: (§1) 5-week-old male C57BL/6 mice having a body weight of 19 to 21 g were divided into a normal group and an experimental group, with 6 mice per group, and acclimatized to the laboratory for 1 week, and then the experiment was performed. The experimental group was administered with Escherichia coli (1×10^9 CFU/mouse/day) orally once a day for 5 days, and the normal group was administered with physiological saline.
Thereafter, 1×10^9 CFU heat-treated lactic acid bacteria (heat-killed NK112), 1×10^9 CFU lactic acid bacteria lysate supernatant (NK112 cytoplasmic component), 1×10^9 CFU lactic acid bacteria lysate precipitate (NK112 cell wall component), or positive control group drug (fluoxetine 1 mg/kg) was administered once a day for 5 days, respectively. […]
According to the method of Steru et al. (Steru L, Chermat R, Thierry B, Simon P (1985) The tail suspension test: A new method for screening antidepressants in mice, Psychopharmacology, Vol. 85; pp. 367-370), A fixation apparatus was attached to the end of the mouse's tail about 1 cm, and then it was hung 50 cm away from the ground in a container with a diameter of 35 cm and a height of 50 cm. The immobility time of the experimental animals was measured for a total of 6 minutes.

[4] = system: male C57BL/6 mice administered with Escherichia coli; assay: Elevated plus maze (EPM) test, Escherichia coli-induced model; conditions: E. coli model mice; once a day for 5 days; NK112 samples 1×10^9 CFU, fluoxetine 1 mg/kg
Protocol: as §1, with “saline. […]” for “saline.”
The elevated plus maze is an experimental apparatus to measure the level of anxiety, depression, or stress, etc. […] The movements of the mouse placed in the elevated plus maze were recorded in a room with a brightness of 20 lux and a video camera installed above.
Specifically, a C57BL/6 mouse was placed facing the open arm with its head in the exact center of the elevated plus maze, and the time and number of times it spent in the open arms and the enclosed arms for 5 minutes were measured. […]
Of the total experimental time, time spent in open arms (OT) was calculated as [time spent in open arms/(time spent in open arms+time spent in enclosed arms)]×100. Open arm entry (OE) was calculated as [open arm entry/(open arm entry+enclosed arm entry)]×100. […]

corticosterone in blood = assay: Corticosterone in blood, Escherichia coli-induced model; conditions: E. coli model mice; once a day for 5 days; NK112 samples 1×10^9 CFU, fluoxetine 1 mg/kg
Protocol: as §1
(§2) Thereafter, 1×10^9 CFU heat-treated lactic acid bacteria (heat-killed NK112), 1×10^9 CFU lactic acid bacteria lysate supernatant (NK112 cytoplasmic component), 1×10^9 CFU lactic acid bacteria lysate precipitate (NK112 cell wall component), or positive control group drug (fluoxetine 1 mg/kg) was administered once a day for 5 days, respectively.
In addition, the concentration of corticosterone in blood, which induces anxiety, in each mouse was also measured and shown in Table 2 below.

[5] = system: male C57BL/6 mice administered with Escherichia coli; assay: Forced swimming test (FST), Escherichia coli-induced model; conditions: E. coli model mice; once a day for 5 days; NK112 samples 1×10^9 CFU, fluoxetine 1 mg/kg
Protocol: as §1, §2
In the case of heat-treated lactic acid bacteria (heat-killed NK112), the precipitate obtained by centrifuging the lactic acid bacteria culture solution in MRS medium was suspended to 1×10^10 CFU/ml, and then heat-treated twice at 70° C. for 10 minutes each to prepare them. […]
A water tank with a height of 40 cm and a diameter of 20 cm was filled with water at a temperature of 25±1° C. to a height of 30 cm. […] The first 2 minutes were not measured as adaptation time, and the immobility time of the experimental animals was measured for the next 4 minutes. […]

SMILES | Y-maze task (%) [1] [%] | NORT test (%) [2] [%] | TST test (%, immbolity time) [3] [%] | EPM test (%, time spent in open arm) [4] [%] | Corticosterone in blood (corticosterone in blood) [ng/mL] | FST test (%, immobility time) [5] [%]
COc1cc2c(cc1OC)C(=O)C(CC1CCN(Cc3ccccc3)CC1)C2 (stereo not drawn) [Donepezil, donepezil] | 63.2 | 62.2 |  |  |  | 
CNCCC(Oc1ccc(C(F)(F)F)cc1)c1ccccc1 (stereo not drawn) [Fluoxetine, fluoxetine] |  |  | 33.5 | 9.8 | 202.5 | 32.1
